Measured values from patent publication US20200199575A1, “ROLE OF EXOSOMES, EXTRACELLULAR VESICLES, IN THE REGULATION OF METABOLIC HOMEOSTASIS” (CHILDREN'S HOSPITAL MEDICAL CENTER, priority 2017, published 2020).
“Also recorded” adds a separate entry of the source.

Legend:
[1] = test system: exosome secretion and RNA loading onto exosomes; conditions: cited from earlier work
N-SMase = target: T1, N-SMase (Rattus norvegicus, UniProt O35049); conditions: rat brain; non-competitive inhibitor; cited from earlier work
T1 construct: host or cells: rat brain
T1 sequence (O35049 1-655): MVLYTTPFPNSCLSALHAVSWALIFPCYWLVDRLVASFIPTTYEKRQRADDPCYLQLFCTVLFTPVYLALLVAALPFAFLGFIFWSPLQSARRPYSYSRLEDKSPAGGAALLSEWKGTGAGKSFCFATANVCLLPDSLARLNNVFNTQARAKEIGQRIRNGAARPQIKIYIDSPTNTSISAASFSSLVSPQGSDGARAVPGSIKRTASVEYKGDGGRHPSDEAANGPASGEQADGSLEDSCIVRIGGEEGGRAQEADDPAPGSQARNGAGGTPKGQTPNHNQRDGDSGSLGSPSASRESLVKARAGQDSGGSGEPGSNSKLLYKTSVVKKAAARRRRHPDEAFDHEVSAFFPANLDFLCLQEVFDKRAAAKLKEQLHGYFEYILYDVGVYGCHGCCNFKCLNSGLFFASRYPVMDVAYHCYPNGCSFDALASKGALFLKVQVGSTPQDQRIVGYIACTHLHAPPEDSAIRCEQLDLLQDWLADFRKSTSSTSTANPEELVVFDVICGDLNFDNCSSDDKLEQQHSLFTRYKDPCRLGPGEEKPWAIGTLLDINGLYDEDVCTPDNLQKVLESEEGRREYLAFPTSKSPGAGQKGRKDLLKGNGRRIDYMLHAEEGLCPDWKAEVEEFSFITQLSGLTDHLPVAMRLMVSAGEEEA

[2] = test system: primary mouse bone marrow-derived macrophages (BMDMs); experiment: Exosome transfer from treated primary mouse hepatocytes to bone marrow-derived macrophages, inflammatory response (IL-6 mRNA); conditions: PA 100 μM for 20 hours; exosome fraction by MagCapture kit
Source text: (§1) (A) A scheme of the exosome transfer from cultured primary mouse hepatocytes to primary mouse bone marrow-derived macrophages (BMDMs). […] The same number of exosomes was used.
(§2) SMPD3 plays a critical role in EV secretion and affects components of EV such as RNA.

SMPD3 = test system: SMPD3
Source text: as §1, §2

Cl.Cl.O=C(/C=C/c1ccc(/C=C/C(=O)Nc2ccc(C3=NCCN3)cc2)cc1)Nc1ccc(C2=NCCN2)cc1 [GW4869]
Effect on RNA loading onto exosomes [1]: inhibit | Effect on exosome secretion [1]: inhibit | IC50 (N-SMase): 1000 nM

CCCCCCCCCCCCCCCC(=O)O [palmitate]
Inflammatory effect (IL-6 mRNA expression) in BMDMs of exosomes from hepatocytes treated with palmitate [2]: increase expression of IL-6 mRNA in BMDMs; also recorded: caused higher inflammatory responses in primary murine macrophages | Expression of SMPD3 in cultured hepatocytes on palmitate exposure (SMPD3): induced
